Results: US20230047816A1 (priority 2018, published 2023)
“Also recorded” adds a separate entry of the source.

Legend:
[1] = system: iPSC-derived neural precursor cells (NPC) from CLN7 patients; experiment: Perinuclear mitochondria in iPSC-derived neural precursor cells from CLN7 patients; format: cell-based; details: FIG. 16
[2] = system: mouse cortical primary neurons; experiment: β-amyloid-induced neuronal apoptosis (annexin V/7-AAD flow cytometry); format: cell-based; details: β-amyloid 24 hours
Protocol: (§1) Primary cultures of C57BL/6 mice cortical neurons were prepared from fetal animals of 14.5 days of gestation, seeded at 1.8·10^5 cells/cm^2 in plastic plates coated with poly-D-lysine (10 mg/ml) and incubated in Neurobasal (Life Technologies) supplemented with 2 mM glutamine, 5 mM of glucose, 0.25 mM pyruvate and 2% B27 supplement (Life Technologies). Cells were incubated at 37° C. in a humidified 5% CO2-containing atmosphere. At 72 hours after plating, medium was replaced using Neurobasal (Life Technologies) supplemented with 2 mM glutamine, 5 mM glucose, 0.25 mM pyruvate and 2% B27 supplement (Life Technologies) minus antioxidants (MAO; i.e., lacking vitamin E, vitamin E acetate, superoxide dismutase, catalase and glutathione). […] APC/C-conjugated annexin-V and 7-amino-actinomycin D (7-AAD) (Becton Dickinson Biosciences, BDB, San Jose, Calif., USA) were used to determine quantitatively the percentage of apoptotic neurons by flow cytometry. Cells were stained with annexin V-APC and 7-AAD, following the manufacturer's instructions, and were analysed on a FACScalibur™ flow cytometer (15 mW argon ion laser tuned at 488 nm; CellQuest software, Becton Dickinson Biosciences) using the CellQuest software (BDB). Both GFP+ and GFP− cells were analyzed separately, and the annexin V-APC-stained cells that were 7-AAD-negative were considered to be apoptotic.

[3] = system: neurons from Cln7 knock out (KO) mice; experiment: In vitro model of Batten disease, active Caspase-3 Western blot; format: cell-based, mouse; details: 10 nM, 24 hours
Protocol: Primary cultures of C57BL/6J WT and Cln7Δex2 mice cortical neurons were prepared from fetal animals of 14.5 days of gestation, seeded at 1.8·10^5 cells/cm2 in plastic plates coated with poly-D-lysine […] and incubated in Neurobasal (Life Technologies) supplemented with 2 mM glutamine, 5 mM of glucose, 0.25 mM pyruvate and 2% B27 supplement (Life Technologies). Cells were incubated at 37° C. in a humidified 5% CO2-containing atmosphere. At 72 hours after plating, medium was replaced using Neurobasal (Life Technologies) supplemented with 2 mM glutamine, 5 mM glucose, 0.25 mM pyruvate and 2% B27 supplement (Life Technologies) minus antioxidants (MAO; i.e., lacking vitamin E, vitamin E acetate, superoxide dismutase, catalase, and glutathione). Six days after the plating medium was replaced again. Cells were used at day 9.
Neurons were incubated with 10 nM or vehicle for 24 hours and apoptosis was evaluated by measuring the level of active Caspase-3 form using Western blot. Neurons were lysed in RIPA buffer (2% sodium dodecylsulphate, 2 mM EDTA, 2 mM EGTA and 50 mM Tris pH 7.5), supplemented with protease and phosphatase inhibitor cocktail (100 μM phenylmethylsulfonyl fluoride, 50 μg/ml antipapain, 50 μg/ml pepstatin, 50 μg/ml amastatin, 50 μg/ml leupeptin, 50 μg/ml bestatin, 1 mM o-vanadate, 50 mM NaF, and 50 μg/ml soybean trypsin inhibitor) and boiled for 5 min. […]

primary neurons = experiment: Mitochondrial ROS in NMDA and glutamate excitotoxic models; format: cell-based; details: 0.01 μM, triggered by NMDA and glutamate, FIG. 4B
Cln7Aex2 mice = Cln7Aex2 mice in vivo (cortex pathology, hindlimb paralysis)
[4] = system: mouse cortical primary neurons; experiment: MG132-induced neuronal apoptosis (annexin V/7-AAD flow cytometry); format: cell-based; details: MG132 24 hours; inhibitor 0.01 μM
Protocol: as §1

[5] = system: mouse primary cortical neurons; experiment: Lactate release (glycolysis) upon excitotoxic stimuli; format: cell-based; details: NMDA or glutamate 100 μM 10 minutes, then inhibitor 0.01 μM 24 hours
Protocol: To directly test the ability of the PFKFB3 inhibitor, AZ67 and Compound 1, to protect against the damage caused by excitotoxic stimuli, mouse primary cortical neurons were subjected to a short-term exposure to NMDA or glutamate (100 μM for 10 minutes), a well-known excitotoxic stimuli (Almeida and Bolahos, 2001). For NMDAR activation, neurons at 8 days in vitro were incubated with 100 μM glutamate (plus 10 μM glycine) or 100 μM NMDA (plus 10 μM glycine) for 10 minutes. Neurons were then washed and further incubated in culture medium with the PFKFB3 inhibitors for 24 hours. A colorimetric NADP/NADPH assay kit (Abcam) was used. […] NADPH was determined in 200 μl of the supernatant, after heatinged […] 60° C. for 30 minutes to decompose NADP+. Actual NADP and NADPH+ concentrations were calculated by extrapolating values to a NADPH standard curve (0-100 pmol/well).
In view that this treatment causes PFKFB3 stabilization leading to glycolytic activation and PPP inhibition (Rodriguez-Rodriguez et al., 2012), we reasoned that PFKFB3 inhibition by AZ67 and Compound 1 could abrogate these effects. […] To directly test whether this effect is associated with the control of PFKFB3 on glycolysis, we next assessed the glycolytic-end product, lactate, released to the incubation medium.

[6] = Cln7Aex2 mice in vivo, FIGS. 15A-15C

**Q.** Which results are given for `Cc1noc(C)c1Cn1cc(C#N)c2cc(Oc3ccc(NC(=O)[C@@H]4CCCN4)cc3)ccc21` [AZ67, (2S)-N-[4-({3-cyano-1-[(3,5-dimethyl-1,2-oxazol-4-yl)methyl]-1H-indol-5-yl}oxy)phenyl]pyrrolidine-2-carboxamide]?
**A.** loss of perinuclear mitochondria [1]: rectified the loss of perinuclear mitochondria; prevention of apoptotic neuronal death caused by β-amyloid [2]: ~60%; apoptosis level (active Caspase-3) [3]: significantly reduced; increase in mitochondrial ROS (primary neurons): significantly prevented; accumulation of SCMAS in the cortex (Cln7Aex2 mice; [6]): prevented the accumulation; accumulation of lipofuscin in the cortex (Cln7Aex2 mice; [6]): prevented the accumulation; accumulation of reactive astroglia in the cortex (Cln7Aex2 mice; [6]): prevented the accumulation; hindlimb paralysis (Cln7Aex2 mice; Cln7Aex2 mice, FIG. 15D): prevented; prevention of neuronal apoptosis caused by MG132 [4]: ~45%; lactate released (activation of glycolysis) [5]: fully prevented; also recorded: prevent the increase in lactate production
